From patent publication EP2719696A1, “NOVEL KINASE INHIBITORS” (Asinex Limited, priority 2011, dated 2012)
Like-named read-outs stand apart in the source and are kept apart here.

Legend:
[1] = molecular target: PDGFR-α (Homo sapiens, UniProt P16234); assay: Kinase inhibition assay (ELISA); format: biochemical; conditions: 1 µM ATP
Experimental: (§1) To determine the interaction of our compounds with tyrosine kinases: PDGFR-α, cKIT, PDGFR-β, VEGFR-2 we used enzyme-linked immunosorbent assay (ELISA).
(§2) Determination plates preparation: The plates are processed by neutravidine for 2 h at 30°C. After washing thrice with TBS/0.1% Tween-20 and blocking with 1% BSA/TBS for 1 h at room temperature (RT) 96-well microtiter plates were washed thrice with TBS/0.1% Tween-20 again.
(§3) Reaction: After addition test compounds (in DMSO, DMSO final concentration - 5%) to reaction buffer (20 mM HEPES, pH 7.5, 15 mM MgCl2, 3 mM MnCl2, 2 mM DTT, 0.2 mM Na3VO4, 0.005% Triton X-100; PDGFR-α,: 0.05 µg/ml, 0.5 µg/ml Poly(G,T)-biotin; PDGFR-β: 0.05 µg/ml, 1 µg/ml Poly(G,T)-biotin; c-KIT: 0.03 µg/ml, 0.15 µg/ml Poly(G,T)-biotin; VEGFR-2: 0.07 µg/ml, 0.05 µg/ml Poly(G,T)-biotin) and preincubation of reaction for 10 min at RT and intensive agitation, ATP solution (PDGFR-α, - 1 µM, PDGFR-β - 0.5 µM, c-KIT - 60 µM, VEGFR-2: - 1.5 µM ATP in reaction buffer per well) was added to initiate reaction. Following incubation of mixture for 1 h at 30°C and intensive agitation the reaction was stopped by stop solution (20 mM HEPES, pH 7.5, 50 mM EDTA).
(§4) Kinase activity determination: The reaction mixture was transferred to determination plate. After mix incubation for 1 h at RT and intensive agitation the plates were washed thrice with TBS/0.1% Tween-20. Following mouse monoclonal 0.05 µg/ml Anti-p-Tyr (PY20) HRP antibodies (Santa Cruz Biotechnology) in PBS/BSA were added for 1 h at RT and intensive agitation. After washing, antibody binding was detected by tetramethylbenzidine (TMB) color development (Sigma). Measurement of A450 nm was carried out after addition of H2SO4

[2] = molecular target: VEGFR-2 (Homo sapiens, UniProt P35968); assay: Kinase inhibition assay (ELISA); format: biochemical; conditions: 1.5 µM ATP
Experimental: as §1, §2, §3, §4

[3] = molecular target: cKIT (Homo sapiens, UniProt P10721); assay: Kinase inhibition assay (ELISA); format: biochemical; conditions: 60 µM ATP
Experimental: as §1, §2, §3, §4

[4] = tested on: A172; assay: MTT proliferation / cytotoxicity assay; format: cell-based, human; conditions: Homo sapiens, A 172, 72 h, glioblastoma cell line
Experimental: (§5) Cell culture. The human cancer cell lines A172, A375, A2780 and U251 were purchased from the American Type Culture Collection. All cells were routinely maintained in DMEM containing 10% fetal bovine serum (Omega Scientific), at 37°C in 5% C02.
(§6) Proliferation assay Inhibition of cell A172, A375, A2780 and U251 cell proliferation was assessed by a MTT assay (MTT = Thiazolyl Blue Tetrazolium Bromide) . Cells were inoculated into 96-well microtiter plates containing 0.5% fetal calf serum and incubated at 37°C, 5% CO2, 95% air, and 100% relative humidity for 24 h prior to addition of testing compounds. Following compounds addition, the plates were incubated for an additional 72 h before processing to measure the cell population. Each compound was tested at eight different concentrations in triplicate, as was a control sample. Growth inhibition of 50% (IC50) is calculated by analysis of the data in Prizm3.4 software.
(§7) Table 8 lists IC50 values for inhibition of growth of several cancer cell lines, including the glioblastoma cell lines A172 and U251, measured in a MTT cytotoxicity assay. Table 8. Data of cytotoxicity assay (MTT) for several cancer cell lines, IC50 [µM]

[5] = tested on: A2780; assay: MTT proliferation / cytotoxicity assay; format: cell-based, human; conditions: Homo sapiens, A2780, 72 h
Experimental: as §5, §6, §7

[6] = tested on: A375; assay: MTT proliferation / cytotoxicity assay; format: cell-based, human; conditions: Homo sapiens, A-375, 72 h
Experimental: as §5, §6, §7

[7] = tested on: U251; assay: MTT proliferation / cytotoxicity assay; format: cell-based, human; conditions: Homo sapiens, U-251, 72 h, glioblastoma cell line
Experimental: as §5, §6, §7

[8] = In vivo PK study, determination of brain-to-plasma ratio; conditions: mouse, SHK mice, PO dosing 5mg/kg, 20% water solution of HPβCD, read-out: brain-to-plasma concentration ratio
Experimental: Male SHK mice (22-25 g) were dosed with 5 mg/kg of related compounds as a single injection via oral gavage (formulated in 20% water solution of HPβCD). Blood samples and whole brains were collected from three mice at each of eight collection time points of 0.05, 0.25, 0.5, 1, 2, 4, 8 and 24 h post dose. Plasma was collected from blood samples, and whole brain samples were homogenized in three volumes of water. Both tissues were analyzed for concentrations of related compounds by liquid chromatography-mass spectrometry (LC-MS/MS). Table 9. brain-to-plasma concentration ratios in SHK mice after PO dosing 5mg/kg for several selected examples

Sequence of cKIT (P10721 26-976): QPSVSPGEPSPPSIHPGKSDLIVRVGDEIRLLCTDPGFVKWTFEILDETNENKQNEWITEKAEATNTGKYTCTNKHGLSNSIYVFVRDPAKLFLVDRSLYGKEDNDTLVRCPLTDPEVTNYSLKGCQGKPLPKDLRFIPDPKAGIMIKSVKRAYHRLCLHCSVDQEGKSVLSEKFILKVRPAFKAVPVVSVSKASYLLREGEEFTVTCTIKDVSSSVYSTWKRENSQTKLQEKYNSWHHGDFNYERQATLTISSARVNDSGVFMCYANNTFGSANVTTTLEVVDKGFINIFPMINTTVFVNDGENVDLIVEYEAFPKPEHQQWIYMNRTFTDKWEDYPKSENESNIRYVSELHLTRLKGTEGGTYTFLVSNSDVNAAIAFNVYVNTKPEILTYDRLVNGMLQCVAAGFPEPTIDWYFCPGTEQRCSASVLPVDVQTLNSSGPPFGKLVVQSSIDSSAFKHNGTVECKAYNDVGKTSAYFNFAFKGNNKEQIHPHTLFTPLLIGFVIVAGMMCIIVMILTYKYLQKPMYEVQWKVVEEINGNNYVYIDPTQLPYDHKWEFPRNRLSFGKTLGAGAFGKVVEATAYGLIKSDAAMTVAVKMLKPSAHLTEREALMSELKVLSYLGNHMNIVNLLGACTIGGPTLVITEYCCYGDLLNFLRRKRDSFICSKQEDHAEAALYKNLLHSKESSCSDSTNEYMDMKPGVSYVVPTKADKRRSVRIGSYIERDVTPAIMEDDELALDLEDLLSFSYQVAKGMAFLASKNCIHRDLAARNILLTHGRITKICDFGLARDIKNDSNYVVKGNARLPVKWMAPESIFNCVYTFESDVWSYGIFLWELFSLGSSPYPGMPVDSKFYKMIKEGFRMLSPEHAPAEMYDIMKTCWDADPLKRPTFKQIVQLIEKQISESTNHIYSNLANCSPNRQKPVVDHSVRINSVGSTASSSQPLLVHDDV
Sequence of VEGFR-2 (P35968 20-1356, species assumed): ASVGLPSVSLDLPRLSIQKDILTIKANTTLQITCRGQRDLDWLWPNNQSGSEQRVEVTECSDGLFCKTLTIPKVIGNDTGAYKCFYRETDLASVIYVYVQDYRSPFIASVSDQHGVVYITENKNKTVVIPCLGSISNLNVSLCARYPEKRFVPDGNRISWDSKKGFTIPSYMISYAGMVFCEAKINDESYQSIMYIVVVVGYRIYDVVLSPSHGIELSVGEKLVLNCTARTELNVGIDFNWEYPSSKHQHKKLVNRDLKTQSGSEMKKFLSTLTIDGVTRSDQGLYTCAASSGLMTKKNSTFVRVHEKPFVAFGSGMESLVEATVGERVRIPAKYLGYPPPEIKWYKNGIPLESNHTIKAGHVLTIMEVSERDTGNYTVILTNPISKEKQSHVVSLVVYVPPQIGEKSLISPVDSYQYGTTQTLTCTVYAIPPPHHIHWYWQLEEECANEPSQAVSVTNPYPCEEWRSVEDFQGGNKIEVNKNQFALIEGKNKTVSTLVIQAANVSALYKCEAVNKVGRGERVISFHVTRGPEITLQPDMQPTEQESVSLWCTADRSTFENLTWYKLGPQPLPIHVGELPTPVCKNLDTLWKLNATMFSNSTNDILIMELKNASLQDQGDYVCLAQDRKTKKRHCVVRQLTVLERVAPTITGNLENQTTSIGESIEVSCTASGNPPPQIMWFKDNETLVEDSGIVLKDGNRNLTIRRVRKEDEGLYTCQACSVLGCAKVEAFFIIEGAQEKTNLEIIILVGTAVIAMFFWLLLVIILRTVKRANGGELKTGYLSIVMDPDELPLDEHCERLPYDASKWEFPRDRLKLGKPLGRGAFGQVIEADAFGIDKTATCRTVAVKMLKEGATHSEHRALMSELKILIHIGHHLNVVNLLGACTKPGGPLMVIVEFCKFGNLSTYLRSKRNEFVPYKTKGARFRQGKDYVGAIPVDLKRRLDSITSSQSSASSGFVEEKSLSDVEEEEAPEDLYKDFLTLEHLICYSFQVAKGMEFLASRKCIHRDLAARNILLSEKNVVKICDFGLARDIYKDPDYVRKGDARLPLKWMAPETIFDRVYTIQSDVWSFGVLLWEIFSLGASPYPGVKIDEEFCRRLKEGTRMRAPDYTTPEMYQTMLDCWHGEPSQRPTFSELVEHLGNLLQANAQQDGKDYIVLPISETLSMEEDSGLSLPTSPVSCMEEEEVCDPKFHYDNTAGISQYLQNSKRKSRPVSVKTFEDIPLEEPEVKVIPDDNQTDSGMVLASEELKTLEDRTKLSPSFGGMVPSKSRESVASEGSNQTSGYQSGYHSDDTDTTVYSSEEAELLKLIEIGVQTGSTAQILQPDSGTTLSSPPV
Sequence of PDGFR-α (P16234 24-1089, species assumed): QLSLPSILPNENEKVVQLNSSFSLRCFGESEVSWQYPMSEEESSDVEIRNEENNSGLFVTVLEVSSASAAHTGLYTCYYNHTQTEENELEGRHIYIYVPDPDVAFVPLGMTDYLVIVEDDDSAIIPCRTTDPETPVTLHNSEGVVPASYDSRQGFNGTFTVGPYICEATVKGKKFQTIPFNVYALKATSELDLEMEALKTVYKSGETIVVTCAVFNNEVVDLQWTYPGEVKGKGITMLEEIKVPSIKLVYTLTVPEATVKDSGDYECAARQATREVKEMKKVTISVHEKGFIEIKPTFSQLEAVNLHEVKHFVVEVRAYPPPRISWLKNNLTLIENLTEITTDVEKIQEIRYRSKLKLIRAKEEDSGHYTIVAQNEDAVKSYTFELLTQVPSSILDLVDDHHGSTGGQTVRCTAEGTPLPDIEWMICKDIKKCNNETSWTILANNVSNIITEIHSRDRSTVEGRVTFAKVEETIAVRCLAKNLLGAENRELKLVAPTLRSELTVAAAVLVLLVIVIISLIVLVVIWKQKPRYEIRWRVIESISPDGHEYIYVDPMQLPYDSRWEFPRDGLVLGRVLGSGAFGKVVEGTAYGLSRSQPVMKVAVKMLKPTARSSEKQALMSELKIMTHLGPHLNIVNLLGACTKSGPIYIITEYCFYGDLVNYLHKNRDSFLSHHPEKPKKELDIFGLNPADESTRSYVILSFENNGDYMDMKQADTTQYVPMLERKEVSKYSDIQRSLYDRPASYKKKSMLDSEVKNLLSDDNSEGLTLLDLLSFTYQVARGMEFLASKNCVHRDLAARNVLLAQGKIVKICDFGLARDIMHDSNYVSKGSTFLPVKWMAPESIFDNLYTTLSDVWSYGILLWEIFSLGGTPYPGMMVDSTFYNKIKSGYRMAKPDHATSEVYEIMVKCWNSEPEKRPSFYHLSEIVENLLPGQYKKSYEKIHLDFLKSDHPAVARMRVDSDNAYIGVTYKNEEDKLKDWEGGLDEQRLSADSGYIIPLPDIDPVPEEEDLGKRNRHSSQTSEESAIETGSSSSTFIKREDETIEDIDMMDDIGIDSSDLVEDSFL

Structure (SMILES) | IC50 [1] [nM] | IC50 [2] [nM] | IC50 [3] [nM] | IC50 [4] [µM] | IC50 [5] [µM] | IC50 [6] [µM] | IC50 [7] [µM] | Kp ([8]; male, brain/plasma) | Kp ([8]; brain)
OCCN1CCOCC(Cc2ccnc(Nc3ncc(-c4ccc(F)cc4)s3)c2)C1 (stereo not drawn) [Example 011, 2-(6-{2-[5-(4-Fluoro-phenyl)-thiazol-2-ylamino]-pyridin-4-ylmethyl}-[1,4]oxazepan-4-yl)-ethanol] | < 10 | > 10 | > 10 | > 1 | > 1 | > 1 | > 10 | 12.7 | 
OCCN1CCC(Cc2ccnc(Nc3ncc(-c4ccc(F)cc4)s3)c2)CC1 [Example 003, 2-(4-{2-[5-(4-Fluoro-phenyl)-thiazol-2-ylamino]-pyridin-4-ylmethyl}-piperidin-1-yl)-ethanol] | < 10 | > 10 | > 10 | ≤ 1 | > 1 | > 1 | > 10 | 3.66 | 
Fc1ccc(-c2cnc(Nc3cc(CC4CNCCOC4)ccn3)s2)cc1 (stereo not drawn) [Example 009, [5-(4-Fluoro-phenyl)-thiazol-2-yl]-(4-[1,4]oxazepan-6-ylmethyl-pyridin-2-yl)-amine] | < 10 | > 10 | < 10 | > 10 | > 1 | > 1 | > 10 | 10.3 | 
Cc1nc(Nc2ncc(-c3ccccc3)s2)cc(C2CCN(CCO)CC2)n1 [Example 032, 2-{4-[2-Methyl-6-(5-phenyl-thiazol-2-ylamino)-pyrimidin-4-yl]-piperidin-1-yl}-ethanol] | < 10 | > 10 | > 10 | > 1 | ≤ 1 |  | > 10 | 0.81 | 
OCCN1CCC(c2ccnc(Nc3ncc(-c4ccc(F)cc4)s3)c2)CC1 [Example 035] | < 10 | < 10 | < 10 | > 1 | > 1 | > 1 | > 1 |  | 18.5
Fc1ccc(-c2cnc(Nc3cc(CC4CNCCNC4)ccn3)s2)cc1 [Example 019, (4-[1,4]Diazepan-6-ylmethyl-pyridin-2-yl)-[5-(4-fluoro-phenyl)-thiazol-2-yl]-amine] | < 10 | > 10 | < 10 | > 10 | > 1 | > 1 | > 10 | 0.96 | 
OCCN1CCC(c2ccnc(Nc3ncc(CC(F)(F)F)s3)c2)CC1 [Example 040, 2-{2'-[5-(2,2,2-Trifluoro-ethyl)-thiazol-2-ylamino]-3,4,5,6-tetrahydro-2H-[4,4']bipyridinyl-1-yl}-ethanol] | > 100 | > 100 | > 100 | ≤ 1 | > 10 | > 1 | > 10 | 1.38 | 
Fc1ccc(-c2cnc(Nc3cccc(CC4CNCCOC4)n3)s2)cc1 (stereo not drawn) [Example 013, [5-(4-Fluoro-phenyl)-thiazol-2-yl]-(6-[1,4]oxazepan-6-ylmethyl-pyridin-2-yl)-amine] | > 100 | > 1000 | > 10 | > 1 | < 1 | ≤ 1 | > 1 | 0.59 | 
